As usually defined, the EC50 is the midpoint of the concentration-response curve.

The first assay deals with RSV A2 strain. The assay is described as follows: In vitro CPE (CytoPathic Effect) inhibition effect evaluation test, RSV type A. The conditions noted are these: human respiratory syncytial virus, HEp-2. Type of assay: cell-based. The method in brief: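 EC50 is the concentration giving 50% inhibition of virus-induced cytopathic effect, fitted by nonlinear regression from CellTiter-Glo 2.0 viability. Compounds in 3-fold series were co-incubated at 37 °C with HEp-2 cells and RSV: A2 strain for 4 days, B (Wash/18537) for 5 days; uninfected wells served as control.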
On the technique in general: Damage to the host cells serves as the signal in cytopathic effect assays.
`O=C(NC1(C(=O)O)CCCCC1)c1cnc(N2CC3(CCN(C4CCC4)CC3)c3cc(OCCC4CCOCC4)ccc32)nc1C(F)(F)F` [Compound I-63] showed a concentration giving a half-maximal response (EC50) of less than 0.01 µM.

The assay is the same for the next values; noted with them: human respiratory syncytial virus; inhibitory effect against RSV type A (RSV A2 strain), HEp-2 cells, CPE inhibition; read-out: EC50.
Take `COC(=O)N1CCC(Oc2ccc3c(-c4ncc(C(=O)NC5(C(=O)O)C6CC7CC(C6)CC5C7)c(C(F)(F)F)n4)cn(C4CCC(F)(F)CC4)c3c2)CC1` (centres unmarked) [Compound I-255]: the concentration giving a half-maximal response (EC50) is less than 0.01 µM.
On the same count and under the same terms, next, `Cc1nc(N2CC3(CCOCC3)c3cc(OC4CCN(c5ncccn5)CC4)ccc32)nc(C(F)(F)F)c1C(=O)NC1(C(=O)O)C2CC3CC(C2)CC1C3` (centres unmarked) [Compound I-229]: less than 0.01 µM; `O=C(NC1(C(=O)O)C2CC3CC(C2)CC1C3)c1cnc(-c2cn(C3CCC(F)(F)CC3)c3cc(OC4CCN(CC5(F)CC5)CC4)ccc23)nc1C(F)(F)F` (centres unmarked) [Compound I-425]: less than 0.01 µM.
With `O=C(NC1(C(=O)O)C2CC3CC(C2)CC1C3)c1cnc(N2CC3(CCCCC3)c3cc(O[C@H]4CC[C@H](ON=C5CCC(F)(F)CC5)CC4)ccc32)nc1C(F)(F)F` (some centres unmarked) [Compound I-456], the EC50 lay in the range of 0.01 to 0.1 µM.
For `O=C(NC1(C(=O)O)C2CC3CC(C2)CC1C3)c1cnc(-c2cn(C3CCC(F)(F)CC3)c3cc(OCc4ccc5c(c4)OCC5)ccc23)nc1C(F)(F)F` (centres unmarked) [Compound I-278], the EC50 was less than 0.01 µM.
Still for that read-out and setting: then `COc1cccc(COc2ccc3c(c2)CCN3c2ncc(C(=O)NC3(C(=O)O)CC4CCC3C4)c(C(F)(F)F)n2)c1` (centres unmarked) [Compound I-13], with less than 0.01 µM; and `O=C(NC1(C(=O)O)C2CC3CC(C2)CC1C3)c1cnc(N2CC3(CCOCC3)c3cc(Nc4ccc(C(F)(F)F)cn4)ccc32)nc1C(F)(F)F` (centres unmarked) [Compound I-436], with less than 0.01 µM.
In the case of `COC1CC(n2cc(-c3ncc(C(=O)NC4(C(=O)O)C5CC6CC(C5)CC4C6)c(C(F)(F)F)n3)c3ccc(OC4CCN(c5ncc(F)cn5)CC4)cc32)C1` (centres unmarked) [Compound I-378], the concentration giving a half-maximal response (EC50) was less than 0.01 µM.
On to `Cn1cc(CN2CC(Oc3ccc4c(c3)C3(CCOCC3)CN4c3ncc(C(=O)NC4(C(=O)O)C5CC6CC(C5)CC4C6)c(C(F)(F)F)n3)C2)cn1` (centres unmarked) [Compound I-231], for which the EC50 was less than 0.01 µM.
The same measure, in the same setting: then `COc1ccc2c(c1)C1(CCOCC1)CN2c1ccc(C(=O)NC2(C(=O)O)C3CC4CC(C3)CC2C4)c(C(F)(F)F)n1` (centres unmarked) [Compound I-121], with less than 0.01 µM.
In the case of `O=C(NC1(C(=O)O)C2CC3CC(C2)CC1C3)c1ccc(-c2cn(CC3CC3)c3cc(OC4CCN(c5ncccn5)CC4)ccc23)nc1C(F)(F)F` (centres unmarked) [Compound I-153], the EC50 is less than 0.01 µM.
The same measure, in the same setting: then `CC(C)(C)C[C@@H](NC(=O)c1cnc(-c2cn(C3CCC(F)(F)CC3)c3cc(OC4CCN(c5ncccn5)CC4)ccc23)nc1C(F)(F)F)C(=O)O` [Compound I-302], with less than 0.01 µM; and `O=C(NC1(C(=O)O)C2CC3CC(C2)CC1C3)c1cnc(N2CC3(CCOCC3)c3cc(C4=CCCC4)ccc32)nc1C(F)(F)F` (centres unmarked) [Compound I-128], with less than 0.01 µM.
As for `O=C(NC1(C(=O)O)C2CC3CC(C2)CC1C3)c1cnc(N2CC3(CCCCC3)c3cc(O[C@H]4CC[C@H](ON=C5CC(F)(F)C5)CC4)ccc32)nc1C(F)(F)F` (some centres unmarked) [Compound I-460], the concentration for a half-maximal effect (EC50) is less than 0.01 µM.
Same read-out and setting: then `O=C(NC1(C(=O)O)C2CC3CC(C2)CC1C3)c1cnc(N2CC3(CCCCC3)c3c2ccc(OC2CCN(c4ncccn4)CC2)c3F)nc1C(F)(F)F` (centres unmarked) [Compound I-439], with less than 0.01 µM; and `O=C(NC1(C(=O)O)C2CC3CC(C2)CC1C3)c1ccc(-c2cn(-c3cnccn3)c3cc(OC4CCN(c5ncccn5)CC4)ccc23)nc1C(F)(F)F` (centres unmarked) [Compound I-198], with less than 0.01 µM; and `O=C(NC1(C(=O)O)CCCCC1)c1cnc(N2CC3(CCOCC3)c3cc(OCCN4CCOCC4)ccc32)nc1C(F)(F)F` [Compound I-85], with 0.01 to 0.1 µM.
On the same count and under the same terms, then `CN(C)C(=O)C1(NC(=O)c2cnc(N3CC4(CCOCC4)c4cc(OC5CCN(c6ncccn6)CC5)ccc43)nc2C(F)(F)F)C2CC3CC(C2)CC1C3` (centres unmarked) [Compound I-174], with less than 0.01 µM; and `COC12CC3CC(C1)C(NC(=O)c1cnc(N4CC5(CCOCC5)c5cc(OC6CCN(c7ncccn7)CC6)ccc54)nc1C(F)(F)F)(C(=O)O)C(C3)C2` (single isomer, unassigned) [Compound I-210], with less than 0.01 µM.
`CC1(C)CN(c2ncc(C(=O)NC3(C(=O)O)CCCCC3)c(C(F)(F)F)n2)c2ccc(OCCC3CCOCC3)cc21` [Compound I-54]: the half-maximal effective concentration (EC50) was less than 0.01 µM.
In the case of `O=C(NC1(C(=O)O)CCCCC1)c1cnc(N2CC3(CC3)c3cc(OCCC4CCOCC4)ccc32)nc1C(F)(F)F` [Compound I-44], the 50% effective concentration (EC50) fell in the range of 0.01 to 0.1 µM.
The same measure, in the same setting: next, `O=C(NC1(C(=O)O)C2CC3CC(C2)CC1C3)c1cnc(-c2cn(C3CCC(F)(F)CC3)c3cc(OC4CN(CC(F)(F)F)C4)ccc23)nc1C(F)(F)F` (centres unmarked) [Compound I-388]: less than 0.01 µM.
Consider `O=C(NC1(C(=O)O)C2CC3CC(C2)CC1C3)c1ccc(-c2cn(-c3ccncn3)c3cc(OC4CCN(c5ncccn5)CC4)ccc23)nc1C(F)(F)F` (centres unmarked) [Compound I-197], for which the EC50 is less than 0.01 µM.
`O=C(NC1(C(=O)O)C2CC3CC(C2)CC1C3)c1ccc(-c2cn(C3CCC3)c3cc(OC4CCN(c5ncccn5)CC4)ccc23)nc1C(F)(F)F` (centres unmarked) [Compound I-154]: the EC50 was less than 0.01 µM.
The same measure, in the same setting: next, `COc1ccc2c(-c3ncc(C(=O)NC4(C(=O)O)C5CC6CC(C5)CC4C6)c(C(F)(F)F)n3)cn(C3CCC(F)(F)CC3)c2c1` (centres unmarked) [Compound I-455]: 0.01 to 0.1 µM.
Still for that read-out and setting: then `O=C(NC1(C(=O)O)CCCCC1)c1cnc(N2CCc3cc(OC4CCN(CC(F)(F)F)CC4)ccc32)nc1C(F)(F)F` [Compound I-34], with less than 0.01 µM; and `O=C(NC1(C(=O)O)C2CC3CC(C2)CC1C3)c1cnc(-c2cn(C3CCC(F)(F)CC3)c3cc(OC4CCN(c5nccs5)CC4)ccc23)nc1C(F)(F)F` (centres unmarked) [Compound I-236], with less than 0.01 µM; and `O=C(NC1(C(=O)O)C2CC3CC(C2)CC1C3)c1cnc(N2CC3(CCOCC3)c3cc(OCCC(F)(F)F)ccc32)nc1C(F)(F)F` (centres unmarked) [Compound I-442], with less than 0.01 µM.
Same read-out and setting: then `O=C(NC1(C(=O)O)C2CC3CC(C2)CC1C3)c1cnc(N2CCc3cc(OCCC4CCOCC4)ccc32)nc1C(F)(F)C(F)(F)F` (centres unmarked) [Compound I-180], with less than 0.01 µM; and `O=C(NC1(C(=O)O)C2CC3CC(C2)CC1C3)c1ccc(-c2cn(C3CCC(F)(F)CC3)c3cc(OC4CCCN(C5COC5)C4)ccc23)nc1C(F)(F)F` (racemic) [Compound I-235], with less than 0.01 µM.
As to `CS(=O)(=O)CCN1CCC(Oc2ccc3c(-c4ncc(C(=O)NC5(C(=O)O)C6CC7CC(C6)CC5C7)c(C(F)(F)F)n4)cn(C4CCC(F)(F)CC4)c3c2)CC1` (centres unmarked) [Compound I-254], the concentration giving a half-maximal response (EC50) was 0.01 to 0.1 µM.
Same read-out and setting: then `O=C(NC1(C(=O)O)C2CC3CC(C2)CC1C3)c1cnc(N2CC3(CCOCC3)c3cc(OC4CN(C5COC5)C4)ccc32)nc1C(F)(F)F` (centres unmarked) [Compound I-226], with less than 0.01 µM.
Same read-out and setting: next, `O=C(NC1(C(=O)O)C2CC3CC(C2)CC1C3)c1cnc(N2c3cc(F)c(OC4CCN(c5ncccn5)CC4)cc3C3CCCCCC32)nc1C(F)(F)F` (single isomer, unassigned) [Compound I-395]: less than 0.01 µM; `O=C(NC1(C(=O)O)C2CC3CC(C2)CC1C3)c1cnc(N2CC3(CCOCC3)c3cc(OC4CCC(n5cccn5)CC4)ccc32)nc1C(F)(F)F` (centres unmarked) [Compound I-143]: less than 0.01 µM; `O=C(NC1(C(=O)O)C2CC3CC(C2)CC1C3)c1cnc(N2CC3(CCOCC3)c3cc(C4CCCC4)ccc32)nc1C(F)(F)F` (centres unmarked) [Compound I-129]: less than 0.01 µM.

The same assay, now with this note: inhibitory effect against RSV type A (RSV A2 strain), HEp-2 cells, CPE inhibition; read-out: EC50.
On to `O=C(NC1(C(=O)O)C2CC3CC(C2)CC1C3)c1ccc(-c2cn(-c3ncccc3F)c3cc(OC4CCN(c5ncccn5)CC4)ccc23)nc1C(F)(F)F` (centres unmarked) [Compound I-310], for which the EC50 is less than 0.01 µM.
For `CC(=O)N1CCC2(C1)CN(c1ncc(C(=O)NC3(C(=O)O)C4CC5CC(C4)CC3C5)c(C(F)(F)F)n1)c1ccc(OC3CCN(c4ncccn4)CC3)cc12` (racemic) [Compound I-362], the EC50 was less than 0.01 µM.
The same measure, in the same setting: then `O=C(NC1(C(=O)O)C2CC3CC(C2)CC1C3)c1ccc(-c2cn(C3CCC(F)CC3)c3cc(O[C@H]4CC[C@H](N5CC(F)(F)C5)CC4)ccc23)nc1C(F)(F)F` (single isomer, unassigned) [Compound I-584], with less than 0.01 µM; and `O=C(NC1(C(=O)O)C2CC3CC(C2)CC1C3)c1ccc(-c2cn(-c3ccc(C(F)(F)F)cn3)c3cc(OC4CCN(c5ncccn5)CC4)ccc23)nc1C(F)(F)F` (centres unmarked) [Compound I-303], with less than 0.01 µM; and `O=C(NC1(C(=O)O)C2CC3CC(C2)CC1C3)c1cnc(N2CC3(CCN(c4ncc(F)cn4)C3)c3cc(OC4CCN(c5ncccn5)CC4)ccc32)nc1C(F)(F)F` (racemic) [Compound I-361], with less than 0.01 µM.
Regarding `O=C(Nc1ccc2c(c1)C1(CCOCC1)CN2c1ncc(C(=O)NC2(C(=O)O)C3CC4CC(C3)CC2C4)c(C(F)(F)F)n1)c1ccccc1` (centres unmarked) [Compound I-323], the EC50 is less than 0.01 µM.
Still for that read-out and setting: next, `O=C(NC1(C(=O)O)C2CC3CC(C2)CC1C3)c1cnc(N2CC3(CCOCC3)c3cc(NS(=O)(=O)c4ccccc4)ccc32)nc1C(F)(F)F` (centres unmarked) [Compound I-342]: 0.1 to 5 µM; `N#Cc1cccnc1-n1cc(-c2ccc(C(=O)NC3(C(=O)O)C4CC5CC(C4)CC3C5)c(C(F)(F)F)n2)c2ccc(OC3CCN(c4ncccn4)CC3)cc21` (centres unmarked) [Compound I-338]: less than 0.01 µM; `CN(c1ccc2c(c1)C1(CCOCC1)CN2c1ncc(C(=O)NC2(C(=O)O)C3CC4CC(C3)CC2C4)c(C(F)(F)F)n1)S(=O)(=O)c1ccccc1` (centres unmarked) [Compound I-344]: 0.01 to 0.1 µM.
`O=C(NC1(C(=O)O)C2CC3CC(C2)CC1C3)c1cnc(N2CC3(CCOCC3)c3nc(OC4CCN(c5ncccn5)CC4)ccc32)nc1C(F)(F)F` (centres unmarked) [Compound I-107]: the 50% effective concentration (EC50) was less than 0.01 µM.
The same measure, in the same setting: next, `CNc1nc(N2CCc3cc(OCCC4CCOCC4)ccc32)nc(C(F)(F)F)c1C(=O)NC1(C(=O)O)C2CC3CC(C2)CC1C3` (centres unmarked) [Compound I-95]: less than 0.01 µM.

The values are drawn from US12528790B2, “Amide derivative having antiviral activity” (Shionogi & Co., Ltd., priority 2020, dated 2026).
